Measurements from patent publication US20080200564A1, “Copolymers Based on N-Vinylpyrrolidone and Branched Aliphatic Carbonxylic Acids, and Their Use as Solubilizers” (BASF Aktiengesellschaft, priority 2005, published 2008).

Experiment: Preparation of solubilizates: content of solubilized active ingredient, measured photometrically
Type: physicochemical
Conditions: pH 7
Method: 2 g of the copolymer were weighed into a beaker. Then, one medicament in each case was weighed into the mixture as follows in order to obtain a supersaturated solution. (If the weighed-in mass dissolved in the medium, the initial weight was increased until a sediment formed). […] Phosphate buffer pH 7.0 was then added until solubilizer and phosphate buffer were present in the weight ratio 1:9. […] There then followed a resting time of at least one hour. Following filtration of the mixture, it was measured photometrically and the content of active ingredient was determined.

Row | Substance | content of solubilized active ingredient, Carbamazepine | content of solubilized active ingredient, Piroxicam
1 | copolymers of N-vinylpyrrolidone/VEOVA 9 (weight ratio 90/10) [Example 3] | 0.19 g/100 ml | 0.48 g/100 ml
2 | copolymers of N-vinylpyrrolidone/N-vinylcaprolactam/VEOVA 10 (weight ratio 70/20/10) [Example 4] | 0.21 g/100 ml | 0.50 g/100 ml
3 | copolymers of N-vinylpyrrolidone/VEOVA 9 (weight ratio 80/20) [Example 2] | 0.17 g/100 ml | 0.54 g/100 ml
